Reference: patent publication US20240197166A1, “COMPUTATIONAL IN SILICO MODEL FOR CORNEA BARRIER” (CFD Research Corporation, priority 2022, published 2024)

Legend:
[1] = system: corneal barrier of the in vitro cornea device (epithelial, fibroblast, endothelial triculture); assay: Permeability of the in vitro cornea device to FSS after trypan blue exposure; type: cell-based; settings: trypan blue injected into TFEp channel at 3 μL/min for 4 min, incubated at 37° C. for 15 min; then FSS injected into TFEp channel and permeability assayed; worded "can be"
Procedure: (§1) In some embodiments, all channels of the device can be coated with human fibronectin to facilitate cellular attachment. For example, primary human corneal fibroblasts can be seeded on Day 0. Fibroblasts can be harvested, concentrated to 1×10^7 cells/mL and injected into the stromal chamber via a remote head syringe pump at 5 μL/min until cells are homogenously distributed. Devices can then be incubated at 37° C., 5% CO2 for 4 hours to allow for attachment. Media can be subsequently refreshed every 24 hours. Primary human corneal epithelial cells can be seeded into the TFEp circulation channel on Day 3. […]
(§2) Viability can be assessed on-chip as an endpoint for epithelial, fibroblast, and endothelial cells. Devices are prepared for viability quantitation by incubation with calcein AM and ethidium homodimer in PBS. After rinsing the cells with PBS, fluorescent images are taken via microscope, and the data was analyzed to determine cornea triculture viability (scc, FIG. 5A). […]
Following exposure, FSS can be injected into the TFEp channel and permeability assayed. […] Samples can be taken from cell-laden channels (individually or combined) and placed in a low volume, white walled […] plate for luminescence analysis using a plate reader. […] The increase in AK release in arbitrary luminescence units compares the toxic exposure of trypan blue to positive and negative controls. […]

[2] = system: cells of the in vitro cornea device (cell-laden channels); assay: Cytotoxicity by adenylate kinase release (luminescence) from the cell-laden channels of the in vitro cornea device; type: cell-based; settings: trypan blue exposure; compared with positive control (100% death by lysis buffer) and negative control (media only); arbitrary luminescence units; worded "expected"
Procedure: as §1, §2
Following exposure, FSS can be injected into the TFEp channel and permeability assayed. […] Samples can be taken from cell-laden channels (individually or combined) and placed in a low volume, white walled […] plate for luminescence analysis using a plate reader. […] The increase in AK release in arbitrary luminescence units compares the toxic exposure of trypan blue to positive and negative controls.

Cc1cc(-c2ccc(/N=N/c3c(S(=O)(=O)O)cc4cc(S(=O)(=O)O)cc(N)c4c3O)c(C)c2)ccc1/N=N/c1c(S(=O)(=O)O)cc2cc(S(=O)(=O)O)cc(N)c2c1O [trypan blue]
Permeability in trypan blue treated devices compared to controls [1]: 10 fold
Increase in adenylate kinase release [2]: 1.5 fold
